Assay results published in patent US20250213712A1, “ANTIBODY DRUG CONJUGATES COMPRISING CAMPTOTHECIN DERIVATIVES AND USES THEREOF” (priority 2023, published 2025).
Like-named read-outs stand apart in the source and are kept apart here.

Key:
Assay in all cases: In vitro analysis of drugs (MTT cell viability)
[1] = system: MDA-MB-468 cancer cells; assay type: cell-based; conditions: read-out: IC50 ± SD (nM) MDA-MB-468 (TNBC)
Protocol: (§1) The drugs (compounds D1-D6, D21, D25, D27, D28, D35-D37, D46, D47, D48, D49 and controls DXd, FL118 and SN38) were evaluated on NCI-N87, MDA-MB-468, SK-BR-3, HCT116, and JIMT-1 cancer cells. The cancer cells were seeded in 96-well plates at a density of 2,000 to 5,000 cells per well in 100 µL of medium and cultured for 22 to 26 hours. The series of compound was diluted by serial dilution of 1:4˜1:8 from 2 μM to 1 pM with DMSO. The diluted drugs were added to triplicate wells of 96-well plates at 50 μL per well. All assays were performed, by repeating up to 3 times and the results were obtained in up to 3 independent experiments. The plates were incubated for 6 days at 37° C. in a humidified 5% CO2-in-air atmosphere. Cell viability was determined by the MTT assay. The 15 μL of 3-(4,5-dimethylthiazol-2-yl)-2,5-diphenyltetrazolium bromide (MTT) dye dissolved in PBS buffer solution (5 mg/mL) was added to each well of the plates. The formazans formed by reduction of the MTT dye by mitochondrial oxidoreductases in the living cells were dissolved in DMSO, the formazans measured using the absorbance at 550 nm. IC50 (half maximal inhibitory concentration) was generated using a sigmoidal dose-response nonlinear regression curve fit (GraphPad software Inc.).

[2] = system: SK-BR-3 cancer cells; assay type: cell-based; conditions: read-out: IC50 ± SD (nM) SK-BR3 (Breast)
Protocol: as §1

[3] = system: NCI-N87 cancer cells; assay type: cell-based, human; conditions: read-out: IC50 ± SD (nM) NCI-N87 (Gastric)
Protocol: as §1

[4] = Homo sapiens, MDA-MB-468, 144 h
[5] = Drugs, expression level 0.003 × 10^5, 6 days, MTT
[6] = Drugs, expression level 21.8 × 10^5, 6 days, MTT
[7] = Drugs, expression level 13.2 × 10^5, 6 days, MTT

Compound: CC[C@@]1(O)C(=O)OCc2c1cc1n(c2=O)Cc2c-1nc1cc(F)c(O)cc1c2-c1ccoc1 [Compound D28]
- IC50 [1, 4]: 2.45 ± 0.37 nM
- IC50 ([2]; Homo sapiens, SK-BR-3, 144 h): 5.31 ± 0.55 nM
- IC50 ([3]; Homo sapiens, NCI-N87, 144 h): 12.7 ± 4.2 nM

Compound: CC[C@@]1(O)C(=O)OCc2c1cc1n(c2=O)Cc2c-1nc1cc(F)c(C)c3c1c2[C@@H](NC(=O)CO)CC3 [DXd, reference compound]
- IC50 [1, 5]: 0.82 ± 0.3 nM
- IC50 [2, 6]: 1.87 ± 0.49 nM
- IC50 [3, 7]: 7.12 ± 1.75 nM

Compound: CC[C@@]1(O)C(=O)OCc2c1cc1n(c2=O)Cc2c-1nc1cc(F)c(C)c3c1c2[C@@H](NC(=O)Cc1ccc(O)cc1)CC3 [Compound D49]
- IC50 [1, 4]: 0.83 ± 0.01 nM
- IC50 ([2]; Homo sapiens, SK-BR-3, 144 h): 1.79 ± 0.24 nM
- IC50 ([3]; Homo sapiens, NCI-N87, 144 h): 6.11 ± 0.19 nM

Compound: CC[C@@]1(O)C(=O)OCc2c1cc1n(c2=O)Cc2c-1nc1cc3c(cc1c2-c1cccc(O)c1)OCO3 [Compound D36]
- IC50 [1, 4]: 0.52 ± 0.29 nM
- IC50 ([2]; Homo sapiens, SK-BR-3, 144 h): 0.91 ± 0.13 nM
- IC50 ([3]; Homo sapiens, NCI-N87, 144 h): 1.19 ± 0.02 nM

Compound: CCc1c2c(nc3ccc(O)cc13)-c1cc3c(c(=O)n1C2)COC(=O)[C@]3(O)CC [SN38, reference compound]
- IC50 [1, 5]: 0.68 ± 0.14 nM
- IC50 [2, 6]: 1.82 ± 1.21 nM
- IC50 [3, 7]: 6.52 ± 1.55 nM

Compound: CC[C@@]1(O)C(=O)OCc2c1cc1n(c2=O)Cc2c-1nc1cc3c(cc1c2CCc1ccc(O)cc1)OCO3 [Compound D35]
- IC50 [1, 4]: 1.71 nM
- IC50 ([3]; Homo sapiens, NCI-N87, 144 h): 5.57 nM

Compound: CC[C@@]1(O)C(=O)OCc2c1cc1n(c2=O)Cc2c-1nc1cc3c(cc1c2-c1ccc(O)cc1)OCO3 [Compound D21]
- IC50 [1, 4]: 0.38 ± 0.14 nM
- IC50 ([2]; Homo sapiens, SK-BR-3, 144 h): 0.61 ± 0.03 nM
- IC50 ([3]; Homo sapiens, NCI-N87, 144 h): 1.49 ± 0.53 nM

Compound: CC[C@@]1(O)C(=O)OCc2c1cc1n(c2=O)Cc2c-1nc1cc(F)c(O)c3c1c2C(O)CC3 (some centres unmarked) [Compound D25]
- IC50 [1, 4]: 4.49 ± 0.76 nM
- IC50 ([2]; Homo sapiens, SK-BR-3, 144 h): 2.81 ± 0.43 nM
- IC50 ([3]; Homo sapiens, NCI-N87, 144 h): 27.6 ± 8.26 nM

Compound: CC[C@@]1(O)C(=O)OCc2c1cc1n(c2=O)Cc2c-1nc1cc(F)c(C)c3c1c2[C@@H](NCc1ccc(O)cc1)CC3 [Compound D46]
- IC50 [1, 4]: 0.92 ± 0.12 nM
- IC50 ([2]; Homo sapiens, SK-BR-3, 144 h): 1.73 ± 0.19 nM
- IC50 ([3]; Homo sapiens, NCI-N87, 144 h): 2.2 ± 0.13 nM

Compound: CC[C@@]1(O)C(=O)OCc2c1cc1n(c2=O)Cc2cc3cc4c(cc3nc2-1)OCO4 [FL118, reference compound]
- IC50 [1, 5]: 0.37 ± 0.17 nM
- IC50 [2, 6]: 0.86 ± 0.1 nM
- IC50 [3, 7]: 1.04 ± 0.18 nM

Compound: CC[C@@]1(O)C(=O)OCc2c1cc1n(c2=O)Cc2c-1nc1cc(F)c(O)cc1c2-c1ccco1 [Compound D27]
- IC50 [1, 4]: 0.86 ± 0.11 nM
- IC50 ([2]; Homo sapiens, SK-BR-3, 144 h): 1.79 ± 0.34 nM
- IC50 ([3]; Homo sapiens, NCI-N87, 144 h): 6.52 ± 0.45 nM

Compound: CC[C@@]1(O)C(=O)OCc2c1cc1n(c2=O)Cc2c-1nc1cc(F)c(C)c3c1c2[C@@H](NC(=O)C(C)(O)C(F)(F)F)CC3 (some centres unmarked) [Compound D48]
- IC50 [1, 4]: 0.4 ± 0.11 nM
- IC50 ([2]; Homo sapiens, SK-BR-3, 144 h): 1.06 ± 0.15 nM
- IC50 ([3]; Homo sapiens, NCI-N87, 144 h): 1.59 ± 0.09 nM

Compound: CC[C@@]1(O)C(=O)OCc2c1cc1n(c2=O)Cc2c-1nc1cc(F)c(C)c3c1c2[C@@H](NCCc1ccc(O)cc1)CC3 [Compound D47]
- IC50 [1, 4]: 0.96 nM
- IC50 ([2]; Homo sapiens, SK-BR-3, 144 h): 1.8 nM
- IC50 ([3]; Homo sapiens, NCI-N87, 144 h): 2.13 nM

Compound: CC[C@@]1(O)C(=O)OCc2c1cc1n(c2=O)Cc2c-1nc1cc(F)c(C)cc1c2-c1ccc(O)cc1 [Compound D37]
- IC50 [1, 4]: 0.36 ± 0.23 nM
- IC50 ([2]; Homo sapiens, SK-BR-3, 144 h): 0.89 ± 0.06 nM
- IC50 ([3]; Homo sapiens, NCI-N87, 144 h): 1.19 ± 0.25 nM
